Measured values as given in the supplement of paper PMC11451515.

Test system: NOMO1
Experiment: cell viability relative to DMSO control; higher = less cytotoxic
Details: 48 h
Summary of the method: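 NOMO1 or SEM (500 cells/well) or P12-Ichikawa (1000 cells/well) leukemia cells were adapted for at least four passages in each medium. They were seeded in 1536-well plates (5 μl) and pin-dosed with library compounds in DMSO over an 11-point threefold series, 47 μM to 0.79 nM. CellTiter-Glo One luminescence was read after 48 h at 37°C. Viability is the per-plate percentage relative to DMSO wells, with cell-free wells as background.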

[1] = HPLM + 10% dialyzed FBS, 0.000781 µM
[2] = HPLM + 10% dialyzed FBS, 0.00234 µM
[3] = HPLM + 10% dialyzed FBS, 0.00702 µM
[4] = HPLM + 10% dialyzed FBS, 0.0211 µM
[5] = HPLM + 10% dialyzed FBS, 0.0632 µM
[6] = HPLM + 10% dialyzed FBS, 0.19 µM
[7] = HPLM + 10% dialyzed FBS, 0.569 µM
[8] = HPLM + 10% dialyzed FBS, 1.71 µM
[9] = HPLM + 10% dialyzed FBS, 5.12 µM
[10] = HPLM + 10% dialyzed FBS, 15.4 µM
[11] = HPLM + 10% dialyzed FBS, 46.1 µM
[12] = RPMI 5 mM glucose + 10% FBS, 0.000781 µM
[13] = RPMI 5 mM glucose + 10% FBS, 0.00234 µM
[14] = RPMI 5 mM glucose + 10% FBS, 0.00702 µM
[15] = RPMI 5 mM glucose + 10% FBS, 0.0211 µM
[16] = RPMI 5 mM glucose + 10% FBS, 0.0632 µM
[17] = RPMI 5 mM glucose + 10% FBS, 0.19 µM
[18] = RPMI 5 mM glucose + 10% FBS, 0.569 µM
[19] = RPMI 5 mM glucose + 10% FBS, 1.71 µM
[20] = RPMI 5 mM glucose + 10% FBS, 5.12 µM
[21] = RPMI 5 mM glucose + 10% FBS, 15.4 µM
[22] = RPMI 5 mM glucose + 10% FBS, 46.1 µM
[23] = RPMI 5 mM glucose + 10% dialyzed FBS, 0.000781 µM
[24] = RPMI 5 mM glucose + 10% dialyzed FBS, 0.00234 µM
[25] = RPMI 5 mM glucose + 10% dialyzed FBS, 0.00702 µM
[26] = RPMI 5 mM glucose + 10% dialyzed FBS, 0.0211 µM
[27] = RPMI 5 mM glucose + 10% dialyzed FBS, 0.0632 µM
[28] = RPMI 5 mM glucose + 10% dialyzed FBS, 0.19 µM
[29] = RPMI 5 mM glucose + 10% dialyzed FBS, 0.569 µM
[30] = RPMI 5 mM glucose + 10% dialyzed FBS, 1.71 µM
[31] = RPMI 5 mM glucose + 10% dialyzed FBS, 5.12 µM
[32] = RPMI 5 mM glucose + 10% dialyzed FBS, 15.4 µM
[33] = RPMI 5 mM glucose + 10% dialyzed FBS, 46.1 µM

| SMILES | cell viability [1] [%] | cell viability [2] [%] | cell viability [3] [%] | cell viability [4] [%] | cell viability [5] [%] | cell viability [6] [%] | cell viability [7] [%] | cell viability [8] [%] | cell viability [9] [%] | cell viability [10] [%] | cell viability [11] [%] | cell viability [12] [%] | cell viability [13] [%] | cell viability [14] [%] | cell viability [15] [%] | cell viability [16] [%] | cell viability [17] [%] | cell viability [18] [%] | cell viability [19] [%] | cell viability [20] [%] | cell viability [21] [%] | cell viability [22] [%] | cell viability [23] [%] | cell viability [24] [%] | cell viability [25] [%] | cell viability [26] [%] | cell viability [27] [%] | cell viability [28] [%] | cell viability [29] [%] | cell viability [30] [%] | cell viability [31] [%] | cell viability [32] [%] | cell viability [33] [%] |
| --- | --- | --- | --- | --- | --- | --- | --- | --- | --- | --- | --- | --- | --- | --- | --- | --- | --- | --- | --- | --- | --- | --- | --- | --- | --- | --- | --- | --- | --- | --- | --- | --- | --- |
| O=C(CCCCCCC(=O)Nc1cccnc1)NO | 92.3 | 108 | 105 | 101 | 114 | 91.1 | 108 | 109 | 91.3 | 70.5 | 8.89 | 83.6 | 91.2 | 98 | 84.1 | 84.9 | 91.8 | 100 | 83.6 | 84.3 | 72.8 | 12.3 | 101 | 92.3 | 93.9 | 93.1 | 101 | 102 | 110 | 85.1 | 95.4 | 74.1 | 12.7 |
| O=[N+]([O-])c1ncc[nH]1 | 90.7 | 84.4 | 90.2 | 78.4 | 91 | 97.4 | 89.7 | 89.4 | 80.8 | 91.7 | 75.8 | 86.3 | 85.5 | 90.9 | 84.2 | 90.9 | 87.3 | 84.1 | 76.9 | 80.3 | 85.7 | 74 | 88.5 | 93.7 | 88.7 | 87.2 | 75.8 | 82.5 | 78.6 | 81 | 83.2 | 76.1 | 87.7 |
| CCOC(=O)[C@@]1(CCCCCCOc2ccc(Cl)cc2)CO1 | – | – | – | – | – | – | – | – | – | – | – | 120 | 118 | 109 | 107 | 108 | 115 | 106 | 106 | 96.5 | 86.7 | 48.1 | 117 | 117 | 114 | 112 | 111 | 111 | 113 | 108 | 107 | 96 | 56.8 |
| C[N]1C=C(C2=CC=CC=C12)\C3=C(\C(=O)NC3=O)C4=C[N](C5CCN(CC5)CC6=NC=CC=C6)C7=C4C=CC=C7 | 115 | 115 | 110 | 116 | 133 | 116 | 133 | 131 | 129 | 120 | 140 | 100 | 118 | 110 | 107 | 113 | 110 | 109 | 101 | 105 | 129 | 120 | 102 | 113 | 110 | 113 | 119 | 116 | 118 | 116 | 134 | 138 | 113 |
| C[C@H](CCC(=O)O)[C@H]1CCC2C3C[C@H](O)[C@@H]4C[C@H](O)CC[C@]4(C)C3CC[C@@]21C (stereo not given in full) | 112 | 123 | 139 | 133 | 119 | 121 | 97.6 | 104 | 114 | 123 | 110 | 113 | 106 | 121 | 119 | 119 | 116 | 96.7 | 106 | 113 | 108 | 103 | 102 | 126 | 118 | 108 | 122 | 109 | 107 | 94.7 | 116 | 105 | 110 |
| COc1ccc(C(CN(C)C)C2(O)CCCCC2)cc1 (stereo not given) | 101 | 125 | 124 | 125 | 115 | 127 | 120 | 104 | 124 | 94.5 | 95.3 | 44.9 | 118 | 122 | 118 | 113 | 120 | 104 | 104 | 107 | 97.2 | 109 | 46.1 | 111 | 111 | 117 | 105 | 104 | 96.4 | 109 | 97.9 | 111 | 100 |
| N\C1=N\C2=C(N=C[N]2COCCO)C(=O)N1 | 93.1 | 106 | 123 | 112 | 103 | 119 | 104 | 125 | 98.3 | 102 | 73.4 | 106 | 96.8 | 109 | 109 | 103 | 95.4 | 98.1 | 103 | 103 | 97.4 | 96.9 | 112 | 101 | 103 | 97.8 | 93.8 | 113 | 106 | 109 | 107 | 100 | 71.5 |
| NC(=O)Nc1sc(-c2ccc(F)cc2)cc1C(N)=O | 108 | 112 | 117 | 111 | 121 | 102 | 94.5 | 99.8 | 83.8 | 60.2 | 55.2 | 117 | 99.7 | 115 | 96 | 113 | 110 | 96.7 | 92.4 | 95.9 | 78 | 50.5 | 101 | 111 | 111 | 100 | 103 | 107 | 104 | 79.4 | 75.6 | 62 | 54.1 |
| C[C@@H]1CCN(C(=O)CC#N)C[C@@H]1N(C)c1ncnc2[nH]ccc12 | 93.6 | 81.7 | 91.7 | 84.4 | 97.6 | 77.1 | 94.7 | 76.3 | 83.6 | 81.9 | 73.6 | 97.2 | 84.6 | 83.3 | 75.8 | 77.8 | 72 | 73.4 | 71.8 | 81.6 | 80.9 | 75.7 | 89 | 89.1 | 84.9 | 88.4 | 87.5 | 80.7 | 69.3 | 101 | 91.9 | 88.4 | 84.7 |
| O=S(=O)([O-])CCS.[Na+] | 100 | 141 | 124 | 131 | 130 | 112 | 123 | 44.1 | 38.9 | 46.4 | 37.5 | – | – | – | – | – | – | – | – | – | – | – | – | – | – | – | – | – | – | – | – | – | – |
| CCc1cc(C(N)=S)ccn1 | 110 | 117 | 112 | 130 | 118 | 131 | 133 | 119 | 142 | 134 | 118 | 118 | 125 | 127 | 119 | 126 | 132 | 119 | 131 | 130 | 141 | 139 | 126 | 116 | 102 | 126 | 137 | 121 | 137 | 123 | 123 | 145 | 133 |
| CCc1cc2c(cc1N1CCC(N3CCOCC3)CC1)C(C)(C)c1[nH]c3cc(C#N)ccc3c1C2=O | 83.9 | 68.5 | 94.7 | 117 | 135 | 151 | 134 | 121 | 105 | 102 | 68.3 | 91.1 | 83.2 | 102 | 119 | 126 | 132 | 124 | 112 | 117 | 114 | 58.8 | 80.3 | 73.9 | 71.7 | 107 | 125 | 133 | 120 | 111 | 115 | 110 | 52.1 |
| CN1CCN(c2c(F)cc3c(=O)c(C(=O)O)cn(CCF)c3c2F)CC1 | 97.8 | 107 | 114 | 119 | 101 | 116 | 106 | 124 | 105 | 125 | 96.9 | 101 | 103 | 108 | 109 | 122 | 106 | 104 | 116 | 120 | 114 | 119 | 93.3 | 93.2 | 97.6 | 109 | 106 | 108 | 115 | 111 | 118 | 102 | 104 |
| CCOC(=O)C(C#N)C\1C2=CC(=CC=C2O\C(=C1C(=O)OCC)N)Br (stereo not given) | 113 | 120 | 110 | 99.9 | 114 | 104 | 96.1 | 107 | 117 | 92.4 | 97.5 | 97.8 | 90.3 | 97.5 | 87.9 | 99.3 | 102 | 107 | 91.5 | 94.5 | 83.7 | 82.4 | 99.1 | 95.1 | 99 | 95.7 | 104 | 83.8 | 94.4 | 94.7 | 96.7 | 80.3 | 82.6 |
| CCN1C[C@H](C)[N]2C(=C(O)C3=C2\C(=N/N(CC4=CC=C(F)C(=C4)Cl)C3=O)C(=O)NC)C1=O | 107 | 125 | 118 | 126 | 120 | 131 | 98.2 | 92.5 | 96.5 | 58 | 11.9 | 107 | 98.3 | 111 | 111 | 104 | 96 | 97.7 | 99.2 | 96.3 | 80.3 | 11.4 | 106 | 115 | 107 | 121 | 118 | 98.4 | 102 | 111 | 92.6 | 65.6 | 13.9 |
| CCn1c(-c2nonc2N)nc2c(C#CC(C)(C)O)ncc(OC[C@H]3CCCNC3)c21 | 91.3 | 88.8 | 80 | 96 | 73.4 | 75.8 | 71.9 | 61.7 | 70.3 | 71.7 | 48 | 80.8 | 82.5 | 84.1 | 84.1 | 79.8 | 87.3 | 81 | 83.5 | 82 | 84.1 | 49.3 | 77.2 | 96.1 | 86.8 | 93.7 | 80.6 | 84.3 | 74.4 | 82 | 74.2 | 79.2 | 68.2 |
